Measured values reported in the supplement of paper PMC11451515.

Key:
Details in all cases: 48 h
[1] = tested on: NOMO1; experiment: cell viability relative to DMSO control; higher = less cytotoxic
Summary of the method: (§1)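 Library compounds in DMSO were pin-dosed in an 11-point threefold series (47 μM to 0.79 nM) onto leukemia cells in 1536-well plates (5 μl). Plates held 500 cells/well of NOMO1 or SEM or 1000 cells/well of P12-Ichikawa, each adapted for at least four passages in each medium. Luminescence was read with CellTiter-Glo One after 48 h at 37°C. Viability means the per-plate percentage relative to DMSO wells, using cell-free wells as background.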

[2] = tested on: P12-Ichikawa; experiment: as above
Summary of the method: as §1

[3] = tested on: SEM cells; experiment: as above
Summary of the method: as §1

[4] = tested on: NOMO1; experiment: AUC of viability dose-response curve (% viability x log10 dose units); higher = less sensitive
Summary of the method: (§2)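 Library compounds in DMSO were applied for 48 h at 37°C at 11 threefold doses (47 μM to 0.79 nM) to medium-adapted leukemia cells in 1536-well plates holding 500 or 1000 cells/well. Luminescence from CellTiter-Glo One was normalised plate by plate against DMSO and cell-free wells. Area under the curve came from trapezoidal integration of a log-logistic fit, after scaling curves that rose above full viability and discarding those that failed quality control. The fit had four parameters and used log10 doses.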

[5] = tested on: P12-Ichikawa; experiment: as above
Summary of the method: as §2

[6] = tested on: SEM cells; experiment: as above
Summary of the method: as §2

CC(C)[C@H](CO)Nc1nc(Nc2ccc(C(=O)O)c(Cl)c2)c2ncn(C(C)C)c2n1
cell viability [%]
Details | [1] | [2] | [3]
HPLM + 10% dialyzed FBS, 0.000781 µM | 116 | 119 | 113
HPLM + 10% dialyzed FBS, 0.00234 µM | 126 | 120 | 104
HPLM + 10% dialyzed FBS, 0.00702 µM | 122 | 116 | 103
HPLM + 10% dialyzed FBS, 0.0211 µM | 132 | 121 | 112
HPLM + 10% dialyzed FBS, 0.0632 µM | 128 | 119 | 126
HPLM + 10% dialyzed FBS, 0.19 µM | 118 | 115 | 115
HPLM + 10% dialyzed FBS, 0.569 µM | 109 | 96.1 | 97.6
HPLM + 10% dialyzed FBS, 1.71 µM | 108 | 103 | 73.6
HPLM + 10% dialyzed FBS, 5.12 µM | 79.4 | 87.1 | 99.2
HPLM + 10% dialyzed FBS, 15.4 µM | 107 | 96.3 | 92.2
HPLM + 10% dialyzed FBS, 46.1 µM | 29.6 | 92.9 | 54.2
RPMI 5 mM glucose + 10% FBS, 0.000781 µM | 119 | 111 | 89.7
RPMI 5 mM glucose + 10% FBS, 0.00234 µM | 116 | 124 | 128
RPMI 5 mM glucose + 10% FBS, 0.00702 µM | 118 | 117 | 114
RPMI 5 mM glucose + 10% FBS, 0.0211 µM | 128 | 134 | 95.2
RPMI 5 mM glucose + 10% FBS, 0.0632 µM | 134 | 127 | 106
RPMI 5 mM glucose + 10% FBS, 0.19 µM | 131 | 130 | 102
RPMI 5 mM glucose + 10% FBS, 0.569 µM | 131 | 95.7 | 86.6
RPMI 5 mM glucose + 10% FBS, 1.71 µM | 115 | 88.4 | 83.2
RPMI 5 mM glucose + 10% FBS, 5.12 µM | 87.3 | 89.2 | 75.5
RPMI 5 mM glucose + 10% FBS, 15.4 µM | 111 | 93 | 91.7
RPMI 5 mM glucose + 10% FBS, 46.1 µM | 36.1 | 69.9 | 45
RPMI 5 mM glucose + 10% dialyzed FBS, 0.000781 µM | 122 | 119 | 102
RPMI 5 mM glucose + 10% dialyzed FBS, 0.00234 µM | 125 | 122 | 120
RPMI 5 mM glucose + 10% dialyzed FBS, 0.00702 µM | 123 | 130 | 97.3
RPMI 5 mM glucose + 10% dialyzed FBS, 0.0211 µM | 137 | 111 | 107
RPMI 5 mM glucose + 10% dialyzed FBS, 0.0632 µM | 124 | 120 | 116
RPMI 5 mM glucose + 10% dialyzed FBS, 0.19 µM | 140 | 129 | 107
RPMI 5 mM glucose + 10% dialyzed FBS, 0.569 µM | 127 | 102 | 114
RPMI 5 mM glucose + 10% dialyzed FBS, 1.71 µM | 122 | 94 | 79.1
RPMI 5 mM glucose + 10% dialyzed FBS, 5.12 µM | 90.7 | 87.1 | 109
RPMI 5 mM glucose + 10% dialyzed FBS, 15.4 µM | 137 | 102 | 95.5
RPMI 5 mM glucose + 10% dialyzed FBS, 46.1 µM | 44.1 | 73.7 | 57.8

AUC of viability dose-response curve
Details | [4] | [5] | [6]
HPLM + 10% dialyzed FBS | 428 | 432 | 428
RPMI 5 mM glucose + 10% FBS | 445 | 414 | 412
RPMI 5 mM glucose + 10% dialyzed FBS | 462 | 425 | 462

COC(=O)N[C@H](C(=O)N[C@@H](Cc1ccccc1)[C@@H](O)CN(Cc1ccc(-c2ccccn2)cc1)NC(=O)[C@@H](NC(=O)OC)C(C)(C)C)C(C)(C)C
cell viability [%]
Details | [1] | [2] | [3]
HPLM + 10% dialyzed FBS, 0.000781 µM | – | 118 | –
HPLM + 10% dialyzed FBS, 0.00234 µM | – | 107 | –
HPLM + 10% dialyzed FBS, 0.00702 µM | – | 102 | –
HPLM + 10% dialyzed FBS, 0.0211 µM | – | 107 | –
HPLM + 10% dialyzed FBS, 0.0632 µM | – | 124 | –
HPLM + 10% dialyzed FBS, 0.19 µM | – | 118 | –
HPLM + 10% dialyzed FBS, 0.569 µM | – | 102 | –
HPLM + 10% dialyzed FBS, 1.71 µM | – | 105 | –
HPLM + 10% dialyzed FBS, 5.12 µM | – | 107 | –
HPLM + 10% dialyzed FBS, 15.4 µM | – | 101 | –
HPLM + 10% dialyzed FBS, 46.1 µM | – | 25.4 | –
RPMI 5 mM glucose + 10% FBS, 0.000781 µM | 101 | 102 | 103
RPMI 5 mM glucose + 10% FBS, 0.00234 µM | 105 | 117 | 123
RPMI 5 mM glucose + 10% FBS, 0.00702 µM | 113 | 116 | 152
RPMI 5 mM glucose + 10% FBS, 0.0211 µM | 100 | 107 | 111
RPMI 5 mM glucose + 10% FBS, 0.0632 µM | 106 | 112 | 136
RPMI 5 mM glucose + 10% FBS, 0.19 µM | 103 | 117 | 110
RPMI 5 mM glucose + 10% FBS, 0.569 µM | 114 | 114 | 122
RPMI 5 mM glucose + 10% FBS, 1.71 µM | 110 | 116 | 110
RPMI 5 mM glucose + 10% FBS, 5.12 µM | 111 | 122 | 128
RPMI 5 mM glucose + 10% FBS, 15.4 µM | 97.8 | 113 | 116
RPMI 5 mM glucose + 10% FBS, 46.1 µM | 93.4 | 108 | 96.7
RPMI 5 mM glucose + 10% dialyzed FBS, 0.000781 µM | 112 | 98.9 | 101
RPMI 5 mM glucose + 10% dialyzed FBS, 0.00234 µM | 102 | 111 | 118
RPMI 5 mM glucose + 10% dialyzed FBS, 0.00702 µM | 114 | 112 | 136
RPMI 5 mM glucose + 10% dialyzed FBS, 0.0211 µM | 116 | 113 | 123
RPMI 5 mM glucose + 10% dialyzed FBS, 0.0632 µM | 113 | 113 | 132
RPMI 5 mM glucose + 10% dialyzed FBS, 0.19 µM | 103 | 107 | 131
RPMI 5 mM glucose + 10% dialyzed FBS, 0.569 µM | 97.3 | 103 | 110
RPMI 5 mM glucose + 10% dialyzed FBS, 1.71 µM | 101 | 99.2 | 113
RPMI 5 mM glucose + 10% dialyzed FBS, 5.12 µM | 110 | 94.7 | 122
RPMI 5 mM glucose + 10% dialyzed FBS, 15.4 µM | 101 | 98.2 | 123
RPMI 5 mM glucose + 10% dialyzed FBS, 46.1 µM | 94.9 | 86.4 | 79.9

AUC of viability dose-response curve
Details | [4] | [5] | [6]
HPLM + 10% dialyzed FBS | 388 | 455 | 464
RPMI 5 mM glucose + 10% FBS | 470 | 467 | 457
RPMI 5 mM glucose + 10% dialyzed FBS | 453 | 451 | 469
